Source: the NIST ThermoML archive (doi:10.1021/je400667c)

Assay: mn = molality of the nth substance listed, in mol/kg
Details: for surface tension liquid-gas: Maximal bubble pressure; for mass density / electrical conductivity: 100 kPa, Liquid; for mass density: Vibrating tube method; for electrical conductivity: Frequency=0.003 MHz, Alternating current cell with electrodes

CCCCCCCCCCCCCCCCOCCOCCOCCOCCOCCOCCOCCOCCOCCOCCOCCOCCOCCOCCOCCOCCOCCOCCOCCOCCO + O
Details | mass density [kg/m3] | surface tension liquid-gas [mN/m]
298.15 K, m1 = 0.0005 | 995.7 | –
298.15 K, m1 = 0.00199 | – | 68.7
298.15 K, m1 = 0.00251 | – | 66
298.15 K, m1 = 0.00316 | – | 64.2
298.15 K, m1 = 0.00398 | – | 63.2
298.15 K, m1 = 0.00501 | – | 61.3
298.15 K, m1 = 0.00708 | – | 59.4
298.15 K, m1 = 0.01 | – | 56.9
298.15 K, m1 = 0.01413 | – | 55.3
298.15 K, m1 = 0.02239 | – | 53.2
298.15 K, m1 = 0.02818 | – | 52.4
298.15 K, m1 = 0.03162 | – | 52.1
298.15 K, m1 = 0.03981 | – | 52.1
298.15 K, m1 = 0.05 | 997.07 | –
298.15 K, m1 = 0.05012 | – | 51.9
298.15 K, m1 = 0.0631 | – | 51.9
303.15 K, m1 = 0.0005 | 995.58 | –
303.15 K, m1 = 0.002 | – | 65.5
303.15 K, m1 = 0.00251 | – | 64
303.15 K, m1 = 0.00316 | – | 62.5
303.15 K, m1 = 0.00398 | – | 61
303.15 K, m1 = 0.00501 | – | 59.5
303.15 K, m1 = 0.00708 | – | 57.5
303.15 K, m1 = 0.01 | – | 55.8
303.15 K, m1 = 0.01413 | – | 53
303.15 K, m1 = 0.02239 | – | 51
303.15 K, m1 = 0.02818 | – | 50.8
303.15 K, m1 = 0.03162 | – | 50.7
303.15 K, m1 = 0.03981 | – | 50.7
303.15 K, m1 = 0.05 | 996.92 | –
303.15 K, m1 = 0.05012 | – | 50.6
303.15 K, m1 = 0.0631 | – | 50.6
308.15 K, m1 = 0.0005 | 995.44 | –
308.15 K, m1 = 0.002 | – | 63.1
308.15 K, m1 = 0.00251 | – | 62.4
308.15 K, m1 = 0.00316 | – | 60.2
308.15 K, m1 = 0.00398 | – | 59.1
308.15 K, m1 = 0.00501 | – | 57.1
308.15 K, m1 = 0.00708 | – | 55.3
308.15 K, m1 = 0.01 | – | 53.6
308.15 K, m1 = 0.01429 | – | 51.2
308.15 K, m1 = 0.02239 | – | 49.4
308.15 K, m1 = 0.02818 | – | 48.8
308.15 K, m1 = 0.03162 | – | 48.3
308.15 K, m1 = 0.03981 | – | 48.3
308.15 K, m1 = 0.05 | 996.78 | –
308.15 K, m1 = 0.05012 | – | 48.3
308.15 K, m1 = 0.0631 | – | 48.3
313.15 K, m1 = 0.0005 | 995.3 | –
313.15 K, m1 = 0.002 | – | 61.8
313.15 K, m1 = 0.00251 | – | 60.2
313.15 K, m1 = 0.00316 | – | 58.3
313.15 K, m1 = 0.00398 | – | 57.1
313.15 K, m1 = 0.00501 | – | 55.5
313.15 K, m1 = 0.00708 | – | 53.6
313.15 K, m1 = 0.01 | – | 51.7
313.15 K, m1 = 0.01429 | – | 50
313.15 K, m1 = 0.02239 | – | 47.7
313.15 K, m1 = 0.02818 | – | 46.8
313.15 K, m1 = 0.03162 | – | 46.5
313.15 K, m1 = 0.03981 | – | 46.4
313.15 K, m1 = 0.05 | 996.64 | –
313.15 K, m1 = 0.05012 | – | 46.3
313.15 K, m1 = 0.0631 | – | 46.3

CCCCCCCCCCCCCCCC[n+]1ccccc1.[Br-] [1-hexadecylpyridinium bromide] + O
Details | electrical conductivity, 298.15 K [S/m] | electrical conductivity, 303.15 K [S/m] | electrical conductivity, 308.15 K [S/m] | electrical conductivity, 313.15 K [S/m] | mass density, 298.15 K [kg/m3] | mass density, 303.15 K [kg/m3] | mass density, 308.15 K [kg/m3] | mass density, 313.15 K [kg/m3]
m1 = 0.0005 | – | – | – | – | 996.54 | 995.89 | 995.18 | 994.58
m1 = 0.001 | 0.000196 | 0.000252 | 0.000326 | 0.000401 | – | – | – | –
m1 = 0.0015 | 0.000304 | 0.000359 | 0.000436 | 0.000536 | – | – | – | –
m1 = 0.0025 | 0.00044 | 0.000505 | 0.000566 | 0.000684 | – | – | – | –
m1 = 0.004 | 0.000742 | 0.000807 | 0.000884 | 0.00101 | – | – | – | –
m1 = 0.005 | 0.00105 | 0.0011 | 0.00109 | 0.00135 | – | – | – | –
m1 = 0.007 | 0.00135 | 0.00141 | 0.00148 | 0.00156 | – | – | – | –
m1 = 0.009 | 0.00174 | 0.0018 | 0.00187 | 0.00202 | – | – | – | –
m1 = 0.01 | 0.00192 | 0.00201 | 0.00206 | 0.00236 | – | – | – | –
m1 = 0.013 | 0.00236 | 0.00241 | 0.00247 | 0.00259 | – | – | – | –
m1 = 0.015 | 0.00263 | 0.00271 | 0.00276 | 0.00298 | – | – | – | –
m1 = 0.018 | 0.00313 | 0.0031 | 0.00318 | 0.00336 | – | – | – | –
m1 = 0.02 | 0.00345 | 0.0035 | 0.00349 | 0.00384 | – | – | – | –
m1 = 0.024 | 0.00403 | 0.00411 | 0.00416 | 0.00469 | – | – | – | –
m1 = 0.027 | 0.00443 | 0.00451 | 0.00458 | 0.00497 | – | – | – | –
m1 = 0.05 | – | – | – | – | 998.25 | 997.33 | 996.34 | 995.46

CCCCCCCCCCCCOS(=O)(=O)[O-].[Na+] [sodium dodecyl sulfate] + O
Details | electrical conductivity, 298.15 K [S/m] | electrical conductivity, 303.15 K [S/m] | electrical conductivity, 308.15 K [S/m] | electrical conductivity, 313.15 K [S/m] | mass density, 298.15 K [kg/m3] | mass density, 303.15 K [kg/m3] | mass density, 308.15 K [kg/m3] | mass density, 313.15 K [kg/m3]
m1 = 0.0005 | – | – | – | – | 994.78 | 994.12 | 993.69 | 993.15
m1 = 0.00086 | 0.000225 | 0.000289 | 0.000342 | 0.000403 | – | – | – | –
m1 = 0.00135 | 0.000346 | 0.000386 | 0.000457 | 0.000515 | – | – | – | –
m1 = 0.00161 | 0.000432 | 0.000497 | 0.000568 | 0.00063 | – | – | – | –
m1 = 0.00172 | 0.000542 | 0.000598 | 0.000663 | 0.000713 | – | – | – | –
m1 = 0.0023 | 0.000768 | 0.000813 | 0.00087 | 0.000946 | – | – | – | –
m1 = 0.00342 | 0.000984 | 0.00105 | 0.00113 | 0.0012 | – | – | – | –
m1 = 0.005 | 0.00144 | 0.0015 | 0.00159 | 0.00169 | – | – | – | –
m1 = 0.00681 | 0.00177 | 0.00193 | 0.00189 | 0.00207 | – | – | – | –
m1 = 0.0075 | 0.00203 | 0.00211 | 0.0022 | 0.00233 | – | – | – | –
m1 = 0.0108 | 0.00264 | 0.00269 | 0.00279 | 0.00295 | – | – | – | –
m1 = 0.01283 | 0.00293 | 0.00299 | 0.00305 | 0.00322 | – | – | – | –
m1 = 0.01582 | 0.00335 | 0.0034 | 0.00353 | 0.00373 | – | – | – | –
m1 = 0.01974 | 0.00392 | 0.00398 | 0.00412 | 0.00432 | – | – | – | –
m1 = 0.02351 | 0.00445 | 0.0044 | 0.00455 | 0.00468 | – | – | – | –
m1 = 0.02665 | 0.00483 | 0.00487 | 0.00487 | 0.00507 | – | – | – | –
m1 = 0.05 | – | – | – | – | 994.74 | 994.19 | 993.64 | 993.11
